Test results reported in ChEMBL document CHEMBL5055672, “Design, Synthesis, Biological Evaluation, and Computational Studies of Novel Fluorinated Candidates as PI3K Inhibitors: Targeting Fluorophilic Binding Sites” (J Med Chem, 2021).

Legend:
MCF7 [1] = test: Cytotoxicity against human MCF7 cells assessed as growth inhibition at 10 uM after 48 hrs by sulforhodamine B assay; assay type: functional; settings: read-out: GI
MCF7 [2] = test: Antiproliferative activity against human MCF7 cells assessed as inhibition of cell growth incubated for 48 hrs by MTT assay; assay type: functional, cell-based; settings: MCF7, 48 h
MCF-10A = test: Cytotoxicity against human MCF10A cells assessed as inhibition of cell growth incubated for 48 hrs by MTT assay; assay type: cell-based
[3] = Selectivity index, ratio of IC50 for human MCF-10A cells to IC50 for human MCF7 cells; assay type: toxicity; settings: MCF-10A cells versus MCF7 cells, read-out: Ratio IC50
[4] = target: Phosphatidylinositol 4,5-bisphosphate 3-kinase catalytic subunit alpha isoform (Homo sapiens, UniProt P42336); test: Inhibition of PI3Kalpha (unknown origin) using PIP2 as substrate preincubated for 10 mins followed by substrate addition and measured after 1 hr by ELISA
Chain of Phosphatidylinositol 4,5-bisphosphate 3-kinase catalytic subunit alpha isoform (P42336 whole entry, canonical isoform): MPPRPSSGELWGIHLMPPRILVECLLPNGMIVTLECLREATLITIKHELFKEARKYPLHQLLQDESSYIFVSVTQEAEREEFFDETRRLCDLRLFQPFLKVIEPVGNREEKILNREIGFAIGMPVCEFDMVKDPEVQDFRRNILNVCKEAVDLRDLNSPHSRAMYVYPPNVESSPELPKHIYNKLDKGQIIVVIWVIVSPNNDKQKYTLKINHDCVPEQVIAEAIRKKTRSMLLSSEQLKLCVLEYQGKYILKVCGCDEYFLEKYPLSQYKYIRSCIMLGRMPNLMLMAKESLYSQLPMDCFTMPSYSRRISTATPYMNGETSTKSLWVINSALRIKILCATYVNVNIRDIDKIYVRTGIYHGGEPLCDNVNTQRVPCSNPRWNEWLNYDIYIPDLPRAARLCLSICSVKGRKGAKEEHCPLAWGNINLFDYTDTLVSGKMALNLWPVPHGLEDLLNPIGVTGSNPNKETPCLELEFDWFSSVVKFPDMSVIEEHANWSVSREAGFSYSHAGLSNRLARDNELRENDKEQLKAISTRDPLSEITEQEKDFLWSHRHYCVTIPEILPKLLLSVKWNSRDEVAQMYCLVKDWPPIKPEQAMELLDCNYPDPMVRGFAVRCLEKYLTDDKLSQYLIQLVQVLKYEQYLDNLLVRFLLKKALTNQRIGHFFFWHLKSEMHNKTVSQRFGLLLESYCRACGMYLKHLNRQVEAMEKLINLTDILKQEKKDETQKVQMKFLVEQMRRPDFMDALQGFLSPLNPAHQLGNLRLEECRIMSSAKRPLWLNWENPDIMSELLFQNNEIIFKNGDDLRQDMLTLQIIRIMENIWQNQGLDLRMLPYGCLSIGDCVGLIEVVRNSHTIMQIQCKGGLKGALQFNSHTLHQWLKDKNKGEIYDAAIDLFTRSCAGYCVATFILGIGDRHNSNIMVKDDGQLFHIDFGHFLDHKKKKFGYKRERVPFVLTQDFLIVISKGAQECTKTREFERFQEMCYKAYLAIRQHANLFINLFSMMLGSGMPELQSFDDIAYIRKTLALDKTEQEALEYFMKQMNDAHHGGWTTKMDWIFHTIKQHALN

MCF7 [5] = test: Induction of cell cycle arrest in human MCF7 cells assessed as accumulation of cells at G phase at IC50 concentration by Propidium iodide staining based flow cytometric analysis (reference value: 1.76%); assay type: functional
MCF7 [6] = test: Induction of cell cycle arrest in human MCF7 cells assessed as accumulation of cells at G1 phase at IC50 concentration by Propidium iodide staining based flow cytometric analysis (reference value: 61.45%); assay type: functional
MCF7 [7] = test: Induction of cell cycle arrest in human MCF7 cells assessed as accumulation of cells at G2/M phase at IC50 concentration by Propidium iodide staining based flow cytometric analysis (reference value: 10.94%); assay type: functional
MCF7 [8] = test: Induction of cell cycle arrest in human MCF7 cells assessed as accumulation of cells at S phase at IC50 concentration by Propidium iodide staining based flow cytometric analysis (reference value: 27.61%); assay type: functional
MCF7 [9] = test: Induction of apoptosis in human MCF7 cells assessed as early apoptotic cells at 0.72 uM after 48 hrs by annexin V-FITC/propidium iodide staining based flow cytometric analysis (reference value: 0.36%); assay type: functional
MCF7 [10] = test: Induction of apoptosis in human MCF7 cells assessed as late apoptotic cells at 0.72 uM after 48 hrs by annexin V-FITC/propidium iodide staining based flow cytometric analysis (reference value: 0.14%); assay type: functional
MCF7 [11] = test: Induction of apoptosis in human MCF7 cells assessed as necrotic cells at 0.72 uM after 48 hrs by annexin V-FITC/propidium iodide staining based flow cytometric analysis (reference value: 1.26%); assay type: functional
[12] = target: Phosphatidylinositol 4,5-bisphosphate 3-kinase catalytic subunit beta isoform (Homo sapiens, UniProt P42338); test: Inhibition of PI3Kbeta (unknown origin) using PIP2 as substrate preincubated for 10 mins followed by substrate addition and measured after 1 hr by ELISA
Chain of Phosphatidylinositol 4,5-bisphosphate 3-kinase catalytic subunit beta isoform (P42338 whole entry, canonical isoform): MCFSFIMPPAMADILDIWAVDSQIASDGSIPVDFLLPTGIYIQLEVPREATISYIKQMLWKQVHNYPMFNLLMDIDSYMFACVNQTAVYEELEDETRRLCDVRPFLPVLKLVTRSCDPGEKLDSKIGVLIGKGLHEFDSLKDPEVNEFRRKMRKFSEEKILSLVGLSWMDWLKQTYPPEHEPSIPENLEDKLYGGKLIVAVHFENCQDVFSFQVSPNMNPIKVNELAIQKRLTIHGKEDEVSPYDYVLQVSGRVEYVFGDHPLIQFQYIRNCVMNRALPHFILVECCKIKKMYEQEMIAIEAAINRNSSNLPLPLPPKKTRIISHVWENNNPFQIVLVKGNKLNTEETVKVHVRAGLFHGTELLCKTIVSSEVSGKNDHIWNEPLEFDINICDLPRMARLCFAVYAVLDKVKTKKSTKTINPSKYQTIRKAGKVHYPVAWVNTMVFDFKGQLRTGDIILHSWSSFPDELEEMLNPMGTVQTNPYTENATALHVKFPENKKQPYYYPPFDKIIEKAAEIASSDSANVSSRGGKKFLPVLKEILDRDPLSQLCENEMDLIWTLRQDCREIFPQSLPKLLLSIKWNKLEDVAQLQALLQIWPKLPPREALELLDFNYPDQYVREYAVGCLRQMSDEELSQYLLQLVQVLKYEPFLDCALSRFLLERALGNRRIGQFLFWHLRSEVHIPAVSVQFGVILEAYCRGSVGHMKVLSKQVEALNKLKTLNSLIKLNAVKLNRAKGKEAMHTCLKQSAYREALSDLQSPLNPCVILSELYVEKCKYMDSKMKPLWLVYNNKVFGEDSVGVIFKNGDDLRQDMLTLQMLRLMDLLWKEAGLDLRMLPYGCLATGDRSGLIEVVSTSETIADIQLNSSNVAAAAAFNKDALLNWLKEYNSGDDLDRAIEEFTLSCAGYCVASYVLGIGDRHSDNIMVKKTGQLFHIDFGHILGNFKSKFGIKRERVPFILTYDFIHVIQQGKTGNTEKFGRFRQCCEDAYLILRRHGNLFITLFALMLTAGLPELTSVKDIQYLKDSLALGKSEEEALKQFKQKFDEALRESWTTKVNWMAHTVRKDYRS

[13] = target: T1, Phosphatidylinositol 4,5-bisphosphate 3-kinase catalytic subunit delta isoform (Homo sapiens, UniProt O00329); test: Inhibition of PI3Kdelta (unknown origin) using PIP2 as substrate preincubated for 10 mins followed by substrate addition and measured after 1 hr by ELISA
T1 sequence (O00329 whole entry): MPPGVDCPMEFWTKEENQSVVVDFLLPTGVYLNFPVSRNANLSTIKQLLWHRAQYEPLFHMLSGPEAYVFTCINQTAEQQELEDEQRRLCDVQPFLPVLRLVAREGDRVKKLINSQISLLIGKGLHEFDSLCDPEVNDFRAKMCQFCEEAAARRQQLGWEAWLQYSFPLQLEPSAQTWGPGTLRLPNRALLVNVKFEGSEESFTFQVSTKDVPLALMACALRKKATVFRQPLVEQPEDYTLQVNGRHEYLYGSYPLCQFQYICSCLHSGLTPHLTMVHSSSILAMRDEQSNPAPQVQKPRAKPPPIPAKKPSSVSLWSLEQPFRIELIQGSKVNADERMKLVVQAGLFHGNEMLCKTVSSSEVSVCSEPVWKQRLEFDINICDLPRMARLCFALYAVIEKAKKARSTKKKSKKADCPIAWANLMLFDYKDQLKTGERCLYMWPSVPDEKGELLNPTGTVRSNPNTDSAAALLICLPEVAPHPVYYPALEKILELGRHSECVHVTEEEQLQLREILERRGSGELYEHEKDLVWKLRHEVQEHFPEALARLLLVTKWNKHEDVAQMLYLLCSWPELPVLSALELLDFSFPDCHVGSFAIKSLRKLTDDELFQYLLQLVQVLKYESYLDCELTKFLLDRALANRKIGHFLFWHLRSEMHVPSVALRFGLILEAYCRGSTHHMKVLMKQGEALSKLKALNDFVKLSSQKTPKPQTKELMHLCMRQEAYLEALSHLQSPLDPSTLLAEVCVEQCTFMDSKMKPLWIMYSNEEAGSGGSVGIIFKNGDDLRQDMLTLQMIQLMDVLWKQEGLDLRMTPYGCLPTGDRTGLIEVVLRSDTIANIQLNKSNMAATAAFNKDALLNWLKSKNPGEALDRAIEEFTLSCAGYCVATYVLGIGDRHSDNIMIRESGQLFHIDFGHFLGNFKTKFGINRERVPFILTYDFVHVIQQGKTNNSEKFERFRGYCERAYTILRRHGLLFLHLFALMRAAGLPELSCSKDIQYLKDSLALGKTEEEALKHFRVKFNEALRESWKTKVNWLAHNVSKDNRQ

CCRF-CEM = test: Cytotoxicity against human CCRF-CEM cells assessed as growth inhibition at 10 uM after 48 hrs by sulforhodamine B assay; assay type: functional; settings: read-out: GI
HOP-62 = test: Cytotoxicity against human HOP-62 cells assessed as growth inhibition at 10 uM after 48 hrs by sulforhodamine B assay; assay type: functional; settings: read-out: GI
HOP-92 = test: Cytotoxicity against human HOP-92 cells assessed as growth inhibition at 10 uM after 48 hrs by sulforhodamine B assay; assay type: functional; settings: read-out: GI
NCI-H522 = test: Cytotoxicity against human NCI-H522 cells assessed as growth inhibition at 10 uM after 48 hrs by sulforhodamine B assay; assay type: functional; settings: read-out: GI
HCT-116 = test: Cytotoxicity against human HCT-116 cells assessed as growth inhibition at 10 uM after 48 hrs by sulforhodamine B assay; assay type: functional; settings: read-out: GI
SF-268 = test: Cytotoxicity against human SF-268 cells assessed as growth inhibition at 10 uM after 48 hrs by sulforhodamine B assay; assay type: functional; settings: read-out: GI
SF-295 = test: Cytotoxicity against human SF-295 cells assessed as growth inhibition at 10 uM after 48 hrs by sulforhodamine B assay; assay type: functional; settings: read-out: GI
SF-539 = test: Cytotoxicity against human SF-539 cells assessed as growth inhibition at 10 uM after 48 hrs by sulforhodamine B assay; assay type: functional; settings: read-out: GI
SNB-19 = test: Cytotoxicity against human SNB-19 cells assessed as growth inhibition at 10 uM after 48 hrs by sulforhodamine B assay; assay type: functional; settings: read-out: GI
SNB-75 = test: Cytotoxicity against human SNB-75 cells assessed as growth inhibition at 10 uM after 48 hrs by sulforhodamine B assay; assay type: functional; settings: read-out: GI
U-251 = test: Cytotoxicity against human U-251 cells assessed as growth inhibition at 10 uM after 48 hrs by sulforhodamine B assay; assay type: functional; settings: read-out: GI
SK-MEL-2 = test: Cytotoxicity against human SK-MEL-2 cells assessed as growth inhibition at 10 uM after 48 hrs by sulforhodamine B assay; assay type: functional; settings: read-out: GI
UACC-62 = test: Cytotoxicity against human UACC-62 cells assessed as growth inhibition at 10 uM after 48 hrs by sulforhodamine B assay; assay type: functional; settings: read-out: GI
SK-OV-3 = test: Cytotoxicity against human SK-OV-3 cells assessed as growth inhibition at 10 uM after 48 hrs by sulforhodamine B assay; assay type: functional; settings: read-out: GI
786-0 = test: Cytotoxicity against human 786-0 cells assessed as growth inhibition at 10 uM after 48 hrs by sulforhodamine B assay; assay type: functional; settings: read-out: GI
A498 = test: Cytotoxicity against human A498 cells assessed as growth inhibition at 10 uM after 48 hrs by sulforhodamine B assay; assay type: functional; settings: read-out: GI
ACHN = test: Cytotoxicity against human ACHN cells assessed as growth inhibition at 10 uM after 48 hrs by sulforhodamine B assay; assay type: functional; settings: read-out: GI
CAKI-1 = test: Cytotoxicity against human CAKI-1 cells assessed as growth inhibition at 10 uM after 48 hrs by sulforhodamine B assay; assay type: functional; settings: read-out: GI
RXF 393 = test: Cytotoxicity against human RXF 393 cells assessed as growth inhibition at 10 uM after 48 hrs by sulforhodamine B assay; assay type: functional; settings: read-out: GI
MDA-MB-231 = test: Cytotoxicity against human MDA-MB-231 cells assessed as growth inhibition at 10 uM after 48 hrs by sulforhodamine B assay; assay type: functional; settings: read-out: GI
[14] = Cytotoxicity against human Hs 578T cells assessed as growth inhibition at 10 uM after 48 hrs by sulforhodamine B assay; assay type: functional; settings: read-out: GI

## O=S(=O)(Oc1ccc(/C=N/N=c2\scc(-c3ccccc3)n2-c2ccccc2)cc1)C(F)(F)C(F)(F)C(F)(F)C(F)(F)F
MCF7 [1]
  inhibition of growth at 10 µM: 65.5%
MCF7 [2]
  IC50: 0.72 µM
MCF-10A
  IC50: 28.2 µM
[3]
  selectivity ratio: 39.2
[4]
  IC50: 5.8 µM
MCF7 [5]
  Activity: 42.38%
MCF7 [6]
  Activity: 49.27%
MCF7 [7]
  Activity: 7.61%
MCF7 [8]
  Activity: 43.12%
MCF7 [9]
  Activity: 6.18%
MCF7 [10]
  Activity: 21.88%
MCF7 [11]
  Activity: 14.32%
[12]
  IC50: 2.3 µM
[13]
  IC50: 7.9 µM

## COC(=O)/C=C1\S/C(=N\N=C\c2ccc(OS(=O)(=O)C(F)(F)C(F)(F)C(F)(F)C(F)(F)C(F)(F)C(F)(F)C(F)(F)C(F)(F)F)cc2)N(c2ccccc2)C1=O
CCRF-CEM
  inhibition of growth at 10 µM: 22.1%
HOP-62
  inhibition of growth at 10 µM: 27%
HOP-92
  inhibition of growth at 10 µM: 25.1%
NCI-H522
  inhibition of growth at 10 µM: 22.1%
HCT-116
  inhibition of growth at 10 µM: 10.5%
SF-268
  inhibition of growth at 10 µM: 19.3%
SF-295
  inhibition of growth at 10 µM: 22%
SF-539
  inhibition of growth at 10 µM: 12.1%
SNB-19
  inhibition of growth at 10 µM: 36.3%
SNB-75
  inhibition of growth at 10 µM: 37.8%
U-251
  inhibition of growth at 10 µM: 36.2%
SK-MEL-2
  inhibition of growth at 10 µM: 16.9%
UACC-62
  inhibition of growth at 10 µM: 13.5%
SK-OV-3
  inhibition of growth at 10 µM: 14.1%
786-0
  inhibition of growth at 10 µM: 26.6%
A498
  inhibition of growth at 10 µM: 12.9%
ACHN
  inhibition of growth at 10 µM: 11.6%
CAKI-1
  inhibition of growth at 10 µM: 20%
RXF 393
  inhibition of growth at 10 µM: 39.7%
MCF7 [1]
  inhibition of growth at 10 µM: 11.2%
MDA-MB-231
  inhibition of growth at 10 µM: 15.2%
[14]
  inhibition of growth at 10 µM: 34.1%
